Results taken from publication PMC9189904, “Functional Properties of Two Distinct PTH1R Mutants Associated With Either Skeletal Defects or Pseudohypoparathyroidism” (JBMR Plus, 2022).
Substitutions are numbered along the chain they refer to. Non-standard residues stand in square brackets, D forms with d. Residues, ends and D or L forms follow the SMILES beside them. No end group written: not given here. hArg = N=C(N)NCCCC[C@H](N)C(=O)O; Ac5c = NC1(C(=O)O)CCCC1; Aib = CC(C)(N)C(=O)O

Legend:
PTH1R‐R186H = target: T1, PTH1R‐R186H (Homo sapiens, UniProt Q03431, R186H); experiment: GloSensor cAMP signaling assay in transiently transfected GS-22a cells; assay type: cell-based; conditions: for pEC50: Suppl. Table 2, full-length ligands, mean ± SEM of three experiments; for pEC50 / EC50: GS-22a cells; for Emax, %: Suppl. Table 2, percent of maximum response of the same ligand on PTH1R-WT, three experiments; for EC50: Table 2, N-terminal analogs, means of four or three (M-PTH(1-11)) experiments, each in duplicate
T1 construct: expressed in transfected cells; plasmid TG-907 made by VectorBuilder
T1 sequence (Q03431 27-593 E90Y/S91D/E92V/E93P/K95Y/E96A/R186H): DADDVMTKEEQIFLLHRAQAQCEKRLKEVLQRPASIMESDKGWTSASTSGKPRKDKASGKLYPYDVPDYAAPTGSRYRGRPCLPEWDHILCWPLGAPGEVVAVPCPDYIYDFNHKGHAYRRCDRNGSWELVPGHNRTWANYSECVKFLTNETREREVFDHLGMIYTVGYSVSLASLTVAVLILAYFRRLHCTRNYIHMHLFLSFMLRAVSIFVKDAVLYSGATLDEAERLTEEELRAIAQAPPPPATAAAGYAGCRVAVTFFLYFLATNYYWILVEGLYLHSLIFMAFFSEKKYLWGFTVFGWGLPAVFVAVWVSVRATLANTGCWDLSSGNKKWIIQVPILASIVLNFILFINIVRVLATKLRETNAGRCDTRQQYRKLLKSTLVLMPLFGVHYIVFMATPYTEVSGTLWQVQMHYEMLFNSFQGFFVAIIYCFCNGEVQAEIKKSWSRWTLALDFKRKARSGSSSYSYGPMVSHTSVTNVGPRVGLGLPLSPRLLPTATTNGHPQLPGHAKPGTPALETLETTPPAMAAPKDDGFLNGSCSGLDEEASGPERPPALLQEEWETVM
Description: (§1) GS‐22a cells are derived from HEK293 cells (American Type Culture Collection [ATCC], Manassas, VA, USA; CRL‐1573) by stably transfection with the luciferase‐based GloSensor (Promega, San Luis Obispo, CA, USA) cAMP reporter plasmid pGloSensor‐22F. The cells were cultured in Dulbecco's modified Eagle medium (DMEM) supplemented with fetal bovine serum (10%) in a humidified incubator containing 5% CO2 and set at 37°C, and seeded into 96‐well or six‐well plates for transient DNA transfection and functional assays. Cells were transfected when the monolayers were 85%–95% of confluency using Lipofectamine™ 2000 (Thermo Fisher Scientific, Waltham, MA, USA) and 100 ng of DNA per well for 96‐well plates and 1000 ng of DNA per well for six‐well plates. Assays were performed 48 hours after transfection, and media was changed 2–4 hours prior to assay.
(§2) PTH1R‐mediated cAMP signaling was assessed via the GloSensor cAMP reporter in GS‐22a cells in white 96‐well plates. Assays were performed at ambient room temperature. For each plate, the media was replaced with CO2‐independent media (Thermo Fisher Scientific; Cat. No. 18045088) containing luciferin (0.5mM) and the plate was placed into a PerkinElmer Envision plate reader and cAMP‐dependent luminescence, as counts per second (cps), was measured at 2‐minute intervals for 15 minutes, during which time luciferin uptake occurred and luminescence reached a near steady‐state baseline. The plate was then removed from the plate reader, media (vehicle) or test ligands were added at varying concentrations, and luminescence was again measured at 2‐minute intervals for an additional 30–60 minutes.
(§3) Data were processed using Microsoft Excel and GraphPad Prism 8.0 software and analyzed statistically using a Student's t test (two‐tailed and unequal variances). Dose–response curves were fit to the data by using a three‐parameter sigmoidal dose–response equation with nonlinear regression, which yielded the reported response parameters of potency (EC50), efficacy (Emax), and […].

PTH1R‐V204E = target: T2, PTH1R‐V204E (Homo sapiens, UniProt Q03431, V204E); experiment: as above; assay type: cell-based; conditions: for pEC50: Suppl. Table 2, full-length ligands, mean ± SEM of three experiments; for pEC50 / EC50: GS-22a cells; for Emax, %: Suppl. Table 2, percent of maximum response of the same ligand on PTH1R-WT, three experiments; for EC50: Table 2, N-terminal analogs, means of four or three (M-PTH(1-11)) experiments, each in duplicate
T2 construct: expressed in transfected cells; plasmid TG-928 made by VectorBuilder
T2 sequence (Q03431 27-593 E90Y/S91D/E92V/E93P/K95Y/E96A/V204E): T1 sequence (Q03431 27-593 E90Y/S91D/E92V/E93P/K95Y/E96A/R186H) with H160R, V178E
Description: as §1, §2, §3

PTH1R‐WT = target: T3, PTH1R‐WT (Homo sapiens, UniProt Q03431); experiment: as above; assay type: cell-based; conditions: for pEC50: Suppl. Table 2, full-length ligands, mean ± SEM of three experiments, SEM; for pEC50 / EC50: GS-22a cells; for Emax, %: Suppl. Table 2, percent of maximum response of the same ligand on PTH1R-WT, three experiments; for EC50: Table 2, N-terminal analogs, means of four or three (M-PTH(1-11)) experiments, each in duplicate; for Emax: Table 2, percent of maximum response of the same ligand on PTHR1-WT, four or three (M-PTH(1-11)) experiments
T3 construct: expressed in transfected cells; plasmid TG-906 made by VectorBuilder
T3 sequence (Q03431 27-593 E90Y/S91D/E92V/E93P/K95Y/E96A): T1 sequence (Q03431 27-593 E90Y/S91D/E92V/E93P/K95Y/E96A/R186H) with H160R
Description: as §1, §2, §3

PTH1R‐P132L = target: T4, PTH1R‐P132L (Homo sapiens, UniProt Q03431, P132L); experiment: as above; assay type: cell-based; conditions: Table 1, percent of maximum response of the same ligand on PTH1R-WT, mean ± SEM of five experiments
T4 construct: expressed in transfected cells; plasmid TG-395 in pCDNA1
T4 sequence (Q03431 27-593 E90Y/S91D/E92V/E93P/K95Y/E96A/P132L): T1 sequence (Q03431 27-593 E90Y/S91D/E92V/E93P/K95Y/E96A/R186H) with P106L, H160R
Description: as §1, §2, §3

[1] = target: HA‐tagged human PTH1R‐V204E (human) (UniProt Q03431)
[2] = Table 2, percent of maximum response of the same ligand on PTHR1-WT, four or three (M-PTH(1-11)) experiments
[3] = Table 1, percent of maximum response of the same ligand on PTH1R-WT, mean ± SEM of five experiments, SEM

| Compound | pEC50 (PTH1R‐R186H; SEM) | Emax, % (PTH1R‐R186H) | pEC50 (PTH1R‐V204E; SEM) | Emax, % (PTH1R‐V204E) | pEC50 (PTH1R‐WT) | Emax, % (PTH1R‐WT) | EC50 (PTH1R‐R186H) | Emax (PTH1R‐R186H; [2]) | EC50 (PTH1R‐V204E) | Emax (PTH1R‐V204E; [2]) | EC50 (PTH1R‐WT) | Emax (PTH1R‐WT) | also measured |
| --- | --- | --- | --- | --- | --- | --- | --- | --- | --- | --- | --- | --- | --- |
| hPTHrP(1‐141) [PTHrP(1-141)] | 8.90 | 108 ± 3% | 8.55 | 133 ± 12% | 8.65 | 100 ± 0% | – | – | – | – | – | – | – |
| SVSEIQLMHNLGKHLNSMERVEWLRKKL-NH2 [PTH(1‐28), hPTH(1‐28)] | – | – | – | – | – | – | 0.575 nM | 98 ± 10% | 0.447 nM | 78 ± 10% | 0.776 nM | 100% | – |
| CC[C@H](C)[C@H](NC(=O)[C@H](CCC(=O)O)NC(=O)[C@H](CO)NC(=O)[C@@H](NC(=O)[C@@H](N)CO)C(C)C)C(=O)N[C@@H](CCC(N)=O)C(=O)N[C@@H](CC(C)C)C(=O)N[C@@H](CCSC)C(=O)N[C@@H](Cc1c[nH]cn1)C(=O)N[C@@H](CC(N)=O)C(=O)N[C@@H](CC(C)C)C(=O)NCC(=O)N[C@@H](CCCCN)C(=O)N[C@@H](Cc1c[nH]cn1)C(=O)N[C@@H](CC(C)C)C(=O)N[C@@H](CC(N)=O)C(=O)N[C@@H](CO)C(=O)N[C@@H](CCSC)C(=O)N[C@@H](CCC(=O)O)C(=O)N[C@@H](CCCNC(=N)N)C(=O)N[C@H](C(=O)N[C@@H](CCC(=O)O)C(=O)N[C@@H](Cc1c[nH]c2ccccc12)C(=O)N[C@@H](CC(C)C)C(=O)N[C@@H](CCCNC(=N)N)C(=O)N[C@@H](CCCCN)C(=O)N[C@@H](CCCCN)C(=O)N[C@@H](CC(C)C)C(=O)N[C@@H](CCC(N)=O)C(=O)N[C@@H](CC(=O)O)C(=O)N[C@H](C(=O)N[C@@H](Cc1c[nH]cn1)C(=O)N[C@@H](CC(N)=O)C(=O)N[C@@H](Cc1ccccc1)C(N)=O)C(C)C)C(C)C [PTH(1‐34), human(h)PTH(1‐34)] | – | – | – | – | – | – | – | – | – | – | – | – | Emax (PTH1R‐P132L): ~45%; Emax, % (PTH1R‐P132L; SEM): 44 ± 4%; Emax (PTH1R‐R186H; [3]): 118 ± 4%; Emax (PTH1R‐V204E; [3]): 81 ± 4% |
| hPTH(1‐84) [PTH(1-84)] | 9.25 | 96 ± 4% | 9.19 | 115 ± 11% | 9.05 | 100 ± 0% | – | – | – | – | – | – | – |
| human(h)PTH(1‐34) (peptide) | – | – | – | – | – | – | – | – | – | – | – | – | cAMP‐dependent GloSensor luminescence in transfected GS‐22a cells, potency: pEC50 with EC50 (nM) in parentheses [1]: 0.33 nM |
| CC[C@H](C)[C@H](NC(=O)[C@H](CCC(=O)O)NC(=O)C(C)(C)NC(=O)[C@@H](NC(=O)C1(N)CCCC1)C(C)C)C(=O)N[C@@H](CCC(N)=O)C(=O)N[C@@H](CC(C)C)C(=O)N[C@@H](CCSC)C(=O)N[C@@H](Cc1c[nH]cn1)C(=O)N[C@@H](CCC(N)=O)C(=O)N[C@@H](CCCCNC(=N)N)C(N)=O [M‐PTH(1‐11), modified (M)‐PTH(1‐11)] (H-[Ac5c]V[Aib]EIQLMHQ[hArg]-NH2) | – | – | – | – | – | – | 2.82 nM | 126 ± 14% | 0.759 nM | 80 ± 11% | 0.191 nM | 100% | – |
